Target: T1, Acetolactate synthase (Raphanus raphanistrum, UniProt J7HAW4)
T1 sequence (J7HAW4 whole entry): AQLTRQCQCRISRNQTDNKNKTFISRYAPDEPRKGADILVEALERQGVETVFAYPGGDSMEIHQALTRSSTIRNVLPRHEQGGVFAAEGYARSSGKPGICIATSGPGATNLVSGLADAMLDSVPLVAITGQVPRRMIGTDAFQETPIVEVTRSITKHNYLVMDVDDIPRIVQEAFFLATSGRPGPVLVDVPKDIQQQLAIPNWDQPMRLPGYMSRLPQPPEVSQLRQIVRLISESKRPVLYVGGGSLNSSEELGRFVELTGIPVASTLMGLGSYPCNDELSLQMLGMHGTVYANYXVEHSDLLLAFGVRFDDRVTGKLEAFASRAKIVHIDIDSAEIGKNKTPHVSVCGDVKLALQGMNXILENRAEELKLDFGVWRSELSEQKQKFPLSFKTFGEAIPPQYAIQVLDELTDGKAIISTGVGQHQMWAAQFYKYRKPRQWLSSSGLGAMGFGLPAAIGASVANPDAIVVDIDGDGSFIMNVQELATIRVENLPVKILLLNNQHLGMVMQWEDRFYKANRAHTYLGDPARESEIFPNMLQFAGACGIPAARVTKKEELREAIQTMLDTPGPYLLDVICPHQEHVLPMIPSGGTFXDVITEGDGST
Experiment: Inhibition of ALS in ALS-herbicide-susceptible Raphanus raphanistrum […] (wild radish)
Conditions: pooled result: one value given for 2 cell lines, strains, targets or settings; read-out: I50

## Cc1cc(C)nc(NC(=O)NS(=O)(=O)c2ccccc2C(=O)O)n1 [SULFOMETURON]
  IC50: 23 nM
